One test concerns the target PDK1 Direct kinase (Homo sapiens (Human), UniProt O15530). The test can be described thus: Kinase-specific FRET-based Z'-LYTE assay against PDK1 Direct kinase. Type of test: biochemical. The procedure: The compounds of Formula (I) and (II) were tested in the biological test named Kinase-specific Z′-LYTE® assay (Invitrogen Corporation, Life Technologies).
For another test, the system named is U87MG cells. The test can be described thus: Annexin V and 7-AAD staining in U87MG cells (apoptosis). Type of test: cell-based, human. As to conditions: 10 μM, 72 h. On the procedure:
Dual staining with Annexin V coniugated to fluorescein-isothiocyanate (FITC) and 7-amino-actinomysin (7-AAD) was performed using the commercially available kit (Muse Annexin V and Dead Cell Kit; Merck KGaA, Darmstadt, Germany). U87MG cells or GSCs were treated with DMSO (control), SA16, SA23 or IB35 for 72 h or seven days, respectively. At the end of the treatment periods, the percentages of living, apoptotic and dead cells were acquired and analysed by Muse™ Cell Analyzer as previously described (Daniele, S., et al., Combined inhibition of AKT/mTOR and MDM2 enhances Glioblastoma Multiforme cell apoptosis and differentiation of cancer stem cells. Sci. Rep., 2015. 5.).
It was then investigated whether the reduction in cell proliferation elicited by the PDK1 inhibitors could be associated with apoptosis. U87MG cells were treated for 72 h with DMSO (control), or 10 μM SA16, SA23 or IB35. At the end of the treatment period, the cells were collected, and the level of phosphatidylserine externalisation was evaluated using the Annexin V-staining protocol, as described above (FIG. 3). In FIG. 4 the data are expressed as the percentage of apoptotic cells (the data for the early-stage apoptotic cells shown in white, and the data for the late-stage apoptotic/necrotic cells shown in grey) versus the total number of cells. The data shown represented the mean±SEM of three different experiments. The significance of the differences was determined with a one-way ANOVA with Bonferroni post-test (*** p<0.001 vs. control).

In test [1] the test system is AKT phosphorylation at Thr308 in U87MG cells. The test can be described thus: PDK1 activity in U87MG cells, (T308)AKT phosphorylation ELISA. The format is cell-based, human. The settings on record: for inhibition at 10 µM: Homo sapiens, U-87 MG, U87MG cells, read-out: peak of inhibition (percentage of PDK1 inhibition); for time of peak of inhibition of (T308)AKT phosphorylation / inhibition of AKT phosphorylation at Thr308: U87MG, 10 μM; for inhibition of AKT phosphorylation at Thr308: 0-120 min. The procedure:
(§1) U87MG cells were cultured in 96-well microplates (5.000 cells/well), and treated for different times with 10 μM SA16, SA23 or IB35. At the end of the treatment period, the GSCs were centrifuged at 500×g for 3 minutes; cells were washed twice using fresh saline, and rapidly fixed with 4% (for adherent U87MG cells) or 8% (for suspension GSCs) formaldehyde to preserve activation of specific protein modification. The activity of PDK1 was assessed measuring the levels of phosphorylated AKT on Thr308, using a specific primary antibodies. The subsequent incubation with a secondary HRP-conjugated antibody and the developing solution allowed the colorimetric quantification of the levels of phosphorylated protein. The relative number of cells in each well was then determined using the Crystal-Violet assay. The results were calculated by subtracting the mean background value from the values obtained under each test condition: values were normalised to the number of cells in each well and were expressed as the percentages of the control (untreated cells) values.
280(4): p. 1107-1115). […] At the end of the treatment periods, the levels of (T308)AKT phosphorylation was evaluated using an ELISA kit, as described above. The data reported in FIG. 5 were expressed as the percentage of phosphorylated (T308)AKT relative to those of untreated cells (control), which were set at 100%, and were the mean values±SEM of three independent experiments performed in triplicate.
On the technique in general: In an ELISA, binding on a coated surface is turned into a signal by an enzyme label.

The subject of test [2] is AKT phosphorylation at Thr308 in GSCs. The test can be described thus: PDK1 activity in GSCs, (T308)AKT phosphorylation ELISA. The format is cell-based, human. As to conditions: for time of peak of inhibition of AKT phosphorylation at Thr308 / inhibition of AKT phosphorylation at Thr308: 10 μM; for inhibition of AKT phosphorylation at Thr308: 0-120 min; for inhibition at 10 µM: Homo sapiens, read-out: peak of inhibition (percentage of PDK1 inhibition). The procedure:
as §1
The effects of the new compounds on PDK1 activity were investigated by ELISA assays also in GSCs. U87MG-derived CSCs were treated for the indicated times (0-120 min) with NSC medium containing DMSO (control), or 10 μM IIB35, SA23 or SA16. At the end of the treatment periods, the levels of AKT phosphorylation on Thr308 were evaluated using an ELISA assay, as above described. The data were expressed as the percentage of phosphorylated AKT relative to those of untreated cells (control), which were set at 100%, and were the mean values±SEM of three independent experiments performed in triplicate. The data are represented in FIG. 12. The significance of differences was performed using one-way ANOVA with Bonferroni post-test (* p<0.05, ** p<0.01, *** p<0.001 vs. control).

[3] abbreviates: read-out: IC50 (nM) PDK1 direct.

Where two headings read alike, the source gives them in different places.

Sequence of PDK1 Direct kinase (O15530 whole entry): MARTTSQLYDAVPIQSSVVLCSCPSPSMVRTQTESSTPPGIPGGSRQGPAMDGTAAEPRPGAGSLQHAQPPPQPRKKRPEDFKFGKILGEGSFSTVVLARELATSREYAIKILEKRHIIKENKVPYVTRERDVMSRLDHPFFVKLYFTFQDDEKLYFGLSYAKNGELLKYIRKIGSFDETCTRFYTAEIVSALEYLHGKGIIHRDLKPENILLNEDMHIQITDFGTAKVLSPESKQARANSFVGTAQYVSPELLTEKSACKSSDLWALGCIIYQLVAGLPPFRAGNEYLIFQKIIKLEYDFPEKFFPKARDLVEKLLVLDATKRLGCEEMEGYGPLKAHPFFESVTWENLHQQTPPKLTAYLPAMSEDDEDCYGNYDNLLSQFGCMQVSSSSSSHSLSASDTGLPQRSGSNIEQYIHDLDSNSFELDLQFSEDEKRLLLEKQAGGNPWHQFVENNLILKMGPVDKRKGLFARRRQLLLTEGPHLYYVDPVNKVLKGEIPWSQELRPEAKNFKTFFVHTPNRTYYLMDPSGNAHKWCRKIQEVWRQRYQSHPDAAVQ

Turning to `O=C1Nc2ccc(NC(=O)[C@H](NC(=O)c3cccn(Cc4ccc(F)c(F)c4)c3=O)c3ccccc3)cc2/C1=C/c1ncc[nH]1` [SA23, (Z)—(R)—N-(2-((3-((1H-imidazol-2-yl)methylene)-2-oxoindolin-5-yl)amino)-2-oxo-1-phenylethyl)-1-(3,4-difluorobenzyl)-2-oxo-1,2-dihydropyridine-3-carboxamide], the inhibition (in general, how much of the control response was suppressed) at 10 µM against PDK1 Direct kinase was above 50%. The IC50 (usually the concentration at which inhibition is half-maximal) at PDK1 Direct kinase (setting [3]) came to 1520 nM. Also, the IC50 on PDK1 Direct kinase (read-out: PDK1 IC50) stood at 1520 nM. Moreover, the “phosphatidylserine externalization (early and late apoptosis/death)” value in the test on U87MG cells was “significant phosphatidylserine externalization”. Also, in test [1], the inhibition at 10 µM amounted to 48.1 ± 5%, the “time of peak of inhibition of (T308)AKT phosphorylation” value is 120 min and the “inhibition of AKT phosphorylation at Thr308” value is listed as “significantly inhibited”. Moreover, in test [2], the “time of peak of inhibition of AKT phosphorylation at Thr308” value turned out to be 120 min, the “inhibition of AKT phosphorylation at Thr308” value is on record as “significantly inhibited” and the inhibition at 10 µM was 69 ± 4.5%.
For `O=C(CNC(=O)c1cccn(Cc2ccc(F)c(F)c2)c1=O)Nc1ccc2c(c1)/C(=C/c1cnc[nH]1)C(=O)N2` [IB35, (Z)—N-(2-((3-((1H-imidazol-5-yl)methylene)-2-oxoindolin-5-yl)amino)-2-oxoethyl)-1-(3,4-difluorobenzyl)-2-oxo-1,2-dihydro pyridine-3-carboxamide], the inhibition at 10 µM at PDK1 Direct kinase is above 50%. For the same compound, the IC50 on PDK1 Direct kinase (setting [3]) worked out at 112 nM. Also, the IC50 on PDK1 Direct kinase (read-out: PDK1 IC50) is 112 nM. Also, in the test on U87MG cells, the “percentage of total apoptotic cells” value amounted to 23.0±1.9%; the “phosphatidylserine externalization (early and late apoptosis/death)” value was “significant phosphatidylserine externalization”. Further, in test [1], the inhibition at 10 µM stood at 54 ± 5.2%, the “time of peak of inhibition of (T308)AKT phosphorylation” value is recorded as 120 min and the “inhibition of AKT phosphorylation at Thr308” value was “significantly inhibited”. In addition, in test [2], the “time of peak of inhibition of AKT phosphorylation at Thr308” value is given as 120 min, the “inhibition of AKT phosphorylation at Thr308” value is “significantly inhibited” and the inhibition at 10 µM came out at 80.4 ± 3.7%.
